In US20180249709A1, “HERBICIDE COMPOSITIONS AND METHODS FOR CONTROLLING GROWTH OF PLANTS OF THE BUCKTHORN FAMILY” (priority 2016, published 2018):
“Also recorded” adds a separate entry of the source.

Key:
Buckthorn seed radicles = assay: Radicle elongation of germinated Buckthorn seeds over 7 days; format: in vivo; settings: for radicle growth between treatments of various concentrations: MANOVA repeated measures
Protocol: From the seed germination study (above), the first five (5) germinated Buckthorn seeds from each group (same treatment, same site) were set aside for radicle elongation measurements (see FIG. 6). These five were placed together in new Petri plates between two new filter papers dosed with treatment (i.e. same filter setup & treatment as germination study). For each of the 75 germinated seeds (5×15 groups), the initial length of the emerged radicle was measured. The length of the radicle was then re-measured daily for a total of 7 days. […] Therefore, on Day 7 all radicles were also sacrificed and scanned on an Epson® flatbed scanner then analyzed off-label by WinRhizo™ software, which measured the full length as “Brother 1” of the inputted “root”. Using Microsoft Excel, a graph was created to show the average length of radicle 7 days after emergence with standard error, when measured by hand. WinRhizo Day 7 measurements were compared to hand-measured Day 7 measurements to check for accuracy. Another graph was created to show the average growth of the radicle over time. Statistics were done using JMP™ statistical software.

Buckthorn seeds = assay: Seed germination of Buckthorn seeds on filter paper in Petri plates; format: in vivo
Protocol: Juglone was purchased from Sigma Aldrich and diluted in sterile water to a 10^−3 M stock solution for 24 hours at 40° C., then further diluted to obtain 10^−4, 10^−5 and 10^−6 M solutions. Seeds were previously collected from 3 different sites (Site 1: Iroquois Shoreline Woods Park in Oakville, Ontario, Canada; Site 2: Ignatius Jesuit Centre in Guelph, Ontario, Canada, and Site 3: Snyder Flats Conservation Area in Bloomingdale, Ontario, Canada) and then placed into cold stratification. For this experiment, seeds were removed from 40 day cold stratification and surface sterilization was done for 30 s in 3% hydrogen peroxide followed by two one minute sterile water rinses. Sheets of 90 mm filter paper were placed on the bottom of Petri plates, followed by 15 seeds, and then topped with another sheet of filter paper. A pipette then dispensed 2 ml of treatment or control onto each plate directly onto the top filter paper, thereby wetting the seeds and bottom filter paper as well. Five reps (plates) were done for each site at each treatment. Plates were then placed into Ziploc bags (to maintain humidity) and kept at 24° C. in the dark. Plates were checked every day for germination (i.e. emergence of the radicle). The number of germinated seeds per plate was recorded daily. Using Microsoft Excel, a graph was created to show the average number of germinated seeds per group with standard error. Statistics were done using JMP statistical software.

Structure (SMILES): O=C1C=CC(=O)c2c(O)cccc21 [Juglone, 5-hydroxy-1,4-naphthalenedione]
- colour / appearance of radicles vs control (Buckthorn seed radicles; 10^-3 M Juglone, Day 7): darker brown/black; also recorded: possible damaging effect
- radicle elongation (Buckthorn seed radicles; 10^-3 M Juglone, Ignatius Jesuit Centre site, MANOVA, hand-measured): limited radicle elongation significantly
- growth of radicles vs controls (Buckthorn seed radicles; 10^-3 M Juglone, all three sites, seven days, T-tests): significantly reduced growth; also recorded: significantly reduced radicle elongation
- growth of radicles vs controls (Buckthorn seed radicles; 10^-4 M Juglone, Iroquois Shoreline Woods Park site and Snyder Flats Conservation Area site only, T-tests): significantly reduced growth
- radicle growth among the treatments (net WinRhizo values) (Buckthorn seed radicles; ANOVA 2-way with replication, p=0.0005): significant difference in growth
- radicle growth between treatments of various concentrations (Buckthorn seed radicles; Ignatius Jesuit Centre site, hand-measured, F(4,19)=0.73, p=0.0264): significant difference
- radicle growth between treatments of various concentrations (Buckthorn seed radicles; Iroquois Shoreline Woods Park site, hand-measured, F(4,20)=0.38, p=0.1485): no significant difference
- radicle growth between treatments of various concentrations (Buckthorn seed radicles; Snyder Flats Conservation Area site, hand-measured, F(4,19)=0.17, p=0.5339): no significant difference
- growth of radicles vs controls (Buckthorn seed radicles; more dilute concentrations (than 10^-4 M), seed from any site): Growth reduction was not achieved
- percentage of Buckthorn seeds that germinated, treatment vs control (Buckthorn seeds; 10^-5 M Juglone): consistently significantly lower
- percentage of Buckthorn seeds that germinated, treatment vs control (Buckthorn seeds; 10^-6 M Juglone): consistently significantly lower; also recorded: significantly effective in preventing seed germination
- overall effect on germination, difference between the treatments (Buckthorn seeds; Day 12, Least Squares Model, control and 10^-3 to 10^-6 M Juglone, F(4,64)=6.2, p=0.003): significant difference
- percentage of Buckthorn seeds that germinated, trend with concentration (Buckthorn seeds; Juglone concentration increased above 10^-5 M): appeared to increase
